Reference: patent publication US12668589B2, “N-formamidopyrazoline derivative as P2X3 receptor antagonist and use thereof” (HANGZHOU WESTAN PHARMACEUTICAL TECHNOLOGY CO., LTD, priority 2020, dated 2026)

Tests used:
taste of SD rats = experiment: Rat taste test (quinine water / tap water drinking); assay type: in vivo
Experimental: Experimental purpose: to observe an effect of title compounds on taste of SD rats.
• 1.1) Animals and grouping: 40 male SD rats, with about 300 grams per rat. […] A bottle of normal drinking water and a bottle of drinking water containing 0.3 mM quinine hydrochloride were placed in each cage at the same time, and left and right positions where the two bottles of water were placed in all animal feeding cages were the same. After the animals were allowed to freely drink water for 15 minutes, drinking amounts of the two bottles of water were measured respectively to the nearest 0.1 mL. • 1.5) Data statistics: drinking amounts of quinine bitter water and tap water and a total water drinking amount thereof as well as a percentage of quinine water in the total water drinking amount were counted respectively. Water drinking amounts of the bitter water of animals in each group were compared. Whether differences between groups were significant was compared by analysis of variance. 2) Experimental Results

chronic cough = settings: literature, cited from earlier work
human P2X4 = molecular target: T1, human P2X4 (Homo sapiens, UniProt Q99571); experiment: Inhibitory activity against human P2X4 (electrophysiological method); assay type: cell-based; settings: read-out: hP2X4 (IC50)
T1 construct: expressed in transfected cells; host or cells: HEK293
T1 sequence (Q99571 1-388): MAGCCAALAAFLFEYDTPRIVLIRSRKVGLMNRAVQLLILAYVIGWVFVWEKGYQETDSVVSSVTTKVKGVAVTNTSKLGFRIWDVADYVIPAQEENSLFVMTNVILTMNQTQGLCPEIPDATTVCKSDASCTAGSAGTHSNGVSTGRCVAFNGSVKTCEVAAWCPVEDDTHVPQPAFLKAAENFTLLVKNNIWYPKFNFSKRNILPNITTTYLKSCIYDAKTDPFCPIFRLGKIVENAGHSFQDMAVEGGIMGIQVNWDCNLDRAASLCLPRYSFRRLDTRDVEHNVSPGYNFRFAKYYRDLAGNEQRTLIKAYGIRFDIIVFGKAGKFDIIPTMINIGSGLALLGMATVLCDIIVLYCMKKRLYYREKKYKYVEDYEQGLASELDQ

human PAR-1 = molecular target: T2, human PAR-1 (Homo sapiens, UniProt P25116); experiment: Inhibitory activity against PAR-1, calcium ion flux fluorescence method (FLIPR); assay type: cell-based; settings: HEK293/Ga15 cells expressing human PAR-1, TFLLR-NH2 10 μM, starting concentration 30 μM
T2 construct: host or cells: HEK293/Ga15 recombinant cell line
T2 sequence (P25116 22-425): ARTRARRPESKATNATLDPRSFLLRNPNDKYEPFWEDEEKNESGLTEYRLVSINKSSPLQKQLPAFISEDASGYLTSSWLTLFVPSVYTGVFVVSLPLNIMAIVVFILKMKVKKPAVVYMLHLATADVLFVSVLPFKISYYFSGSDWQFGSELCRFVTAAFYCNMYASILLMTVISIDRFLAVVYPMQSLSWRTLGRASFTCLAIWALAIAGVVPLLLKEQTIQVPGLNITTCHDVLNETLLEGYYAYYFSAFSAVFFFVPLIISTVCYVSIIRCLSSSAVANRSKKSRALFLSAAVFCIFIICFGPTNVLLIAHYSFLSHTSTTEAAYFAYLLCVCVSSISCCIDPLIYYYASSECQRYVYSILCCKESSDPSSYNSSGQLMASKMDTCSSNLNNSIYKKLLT
Experimental: The inhibitory activity of the title compounds against human PAR-1 was determined by a calcium ion flux fluorescence method (an FLIPR method). The method thereof was reported in the literature of Zhong et al. [Zhong et al. J Biomol Struct Dyn, 2017, 35(13):2853].
An HEK293/Ga15 recombinant cell line (HD Biosciences, Shanghai, China) stably expressing human PAR-1 was cultured in a DMEM (Thermo Fisher Scientific, Shanghai) culture solution (containing 10% calf serum, 800 μg/mL G418). Incubator conditions were 37° C. and an air humidity with 5% CO2.
On the first day, 20 μL per well of PAR-1 cells at a concentration of 4E+5 cells/mL were seeded in a 384-well analysis plate (Corning 3712). […] On the second day, a culture solution in each well was poured off. Then, 20 μL of 1×loading dye (2 μM Fluo-8 AM in 1×HBSS with 20 mM HEPES, 1 mM Probenecid, 0.025% Pluronic F-127 assay buffer) was added in each well. The cell analysis plate was cultured for 1 hour at a room temperature.
The compounds were dissolved into 100% DMSO to prepare a 10 mM stock solution, which was stored at −20° C. On the day of use, the compound stock solution was thawed at a room temperature. Each compound was subjected to 1:3 serial dilution at 11 concentration points with a DMEM culture solution with a starting concentration of 30 μM. Each compound was subjected to double dilution for testing. A positive control compound was diluted in the same way with SCH79797 with a starting concentration of 30 μM.
The cell analysis plate was placed in a FLIPR instrument (Molecular Device) and 10 μL of compounds (3× of a final concentration) in a compound plate was added to corresponding wells of the cell analysis plate. After 10 minutes, 10 μL of TFLLR-NH2 (TFA) (a final concentration of 10 μM) was added to each well to stimulate generation of intracellular calcium flux signals. Ca^++-dependent fluorescence signals were continuously monitored at excitation wavelengths of 470/495 nm and emission wavelengths of 515/575 nm to analyze the inhibitory activity of the compounds.
Data were collected and analyzed by using an FLIPR program. The inhibitory (or agonistic) activity of the compounds at each concentration was assessed by fluorescence peaks. IC50 values of the compounds were calculated by using EXCEL and PRISM programs.

human P2X3 = molecular target: T3, human P2X3 (Homo sapiens, UniProt P56373); experiment: cell-based
T3 sequence (P56373 1-397): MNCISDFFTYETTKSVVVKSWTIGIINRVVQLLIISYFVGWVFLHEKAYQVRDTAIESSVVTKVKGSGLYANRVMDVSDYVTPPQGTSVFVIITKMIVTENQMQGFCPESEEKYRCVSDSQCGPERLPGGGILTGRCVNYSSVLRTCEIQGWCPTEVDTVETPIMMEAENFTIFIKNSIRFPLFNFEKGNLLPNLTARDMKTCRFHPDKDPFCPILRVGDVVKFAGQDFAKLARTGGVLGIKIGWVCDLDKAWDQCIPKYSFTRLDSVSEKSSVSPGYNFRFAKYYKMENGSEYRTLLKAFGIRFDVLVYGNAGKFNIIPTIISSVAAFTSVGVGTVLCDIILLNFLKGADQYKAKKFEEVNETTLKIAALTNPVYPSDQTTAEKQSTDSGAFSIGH
Experimental: An HEK293 cell line was used as cells. HEK293 cells were placed in a 37° C. incubator with 5% CO2 for culture. Passage was conducted when the cells grew to a density of 80% to 90%. A culture medium in an original 60 mm culture dish was discarded. After the cells were washed 3 times with a sterilized PBS solution, and the solution was blotted up. […] After the trypsin was blotted up, 3 mL of a cell culture medium was added to resuspend the cells. 0.5 mL of a resuspension solution was taken to be added into a new culture dish, and an total culture solution was supplemented to 5 mL. The culture dish was gently shaken to distribute the cells evenly, and then placed in a 37° C. incubator with 5% CO2 for culture.
First, treated slides were spread in a small 35 mm culture dish. 100 μL of resuspended cells were added, and then a total amount of a culture medium was supplemented to 2 mL. Target genes were transferred into the HEK293 cell line by adopting a calcium transfection method. Small dishes to be transfected were subjected to medium change 1 hour before transfection. 2 mL of a fresh cell culture solution was added. A 1.5 mL EP tube was taken, 200 μL of a 0.25 M CaCl2) solution was added, and 3 μg of plasmids to be transfected were added, and even mixing was conducted to form a DNA-CaCl2 solution. […] A pipette tip was used for mixing while adding. After adding all, gentle blowing and beating were conducted 8 to 10 times. After still standing for 5 minutes, they were added into small dishes. The small dishes were shaken slightly to mix the solution evenly, and the placed in a cell incubator. Culture mediums were replaced after 8 to 10 hours. Electrophysiological experiments were performed 24 to 48 hours after transfection.
Electrophysiological recording electrodes were obtained by two-step pulling by using an electrode puller (PP-10, Narishige). After an internal solution is injected into the electrodes, a water inlet resistance is 3 to 5 MΩ. During the experiment, a high potassium salt internal solution containing nystatin (K2SO4 of 75 mM, KCl of 120 mM, MgSO4 of 5 mM, HEPES of 10 mM, adjusting pH to 7.2 with Tris-base, and used after filtration) was used as an electrode internal solution. After the cells were sealed by the electrodes, there was no need to further break cell membranes in a sucked manner, but the cell membranes were bored through the perforation of the nystatin to the cell membranes, to form a hole channel. […] A clamping voltage was −60 mV, a sampling frequency was 10 kHz, and filtering was conducted at 2 kHz.
A working concentration of a P2X3 receptor agonist ATP was 1 μM, and an interval time between two times of ATP administrations was 10 minutes.

rP2X3 = molecular target: T4, rP2X3 (Rattus norvegicus, UniProt P49654); experiment: Inhibitory activity against P2X3 in rats (electrophysiological method); assay type: cell-based
T4 construct: expressed in transfected cells; host or cells: HEK293
T4 sequence (P49654 1-397): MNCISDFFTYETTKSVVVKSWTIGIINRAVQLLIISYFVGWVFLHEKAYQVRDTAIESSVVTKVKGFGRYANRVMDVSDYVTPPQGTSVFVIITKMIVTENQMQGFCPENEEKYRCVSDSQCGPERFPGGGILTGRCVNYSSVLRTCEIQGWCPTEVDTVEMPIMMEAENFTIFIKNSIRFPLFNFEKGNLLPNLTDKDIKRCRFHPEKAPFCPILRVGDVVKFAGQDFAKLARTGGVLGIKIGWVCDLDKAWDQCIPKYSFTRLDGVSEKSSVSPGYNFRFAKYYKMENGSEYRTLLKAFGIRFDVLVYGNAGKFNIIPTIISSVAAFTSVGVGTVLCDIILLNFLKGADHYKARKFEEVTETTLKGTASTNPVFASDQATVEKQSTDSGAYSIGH

gpP2X3 = molecular target: T5, gpP2X3 (Cavia porcellus, UniProt H0VWY5); experiment: Inhibitory activity against P2X3 in guinea pigs (electrophysiological method); assay type: cell-based; settings: guinea pig P2X3, electrophysiological method
T5 sequence (H0VWY5 1-391): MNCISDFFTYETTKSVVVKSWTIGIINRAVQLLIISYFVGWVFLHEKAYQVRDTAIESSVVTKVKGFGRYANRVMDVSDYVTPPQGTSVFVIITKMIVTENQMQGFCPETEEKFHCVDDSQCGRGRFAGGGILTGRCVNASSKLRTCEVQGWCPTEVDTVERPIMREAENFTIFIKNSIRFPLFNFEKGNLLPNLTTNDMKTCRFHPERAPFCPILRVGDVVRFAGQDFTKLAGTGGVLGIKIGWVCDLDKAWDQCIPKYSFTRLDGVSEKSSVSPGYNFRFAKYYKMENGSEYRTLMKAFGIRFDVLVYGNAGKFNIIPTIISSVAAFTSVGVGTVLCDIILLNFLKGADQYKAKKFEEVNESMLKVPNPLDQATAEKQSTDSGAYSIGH

Row | SMILES | IC50 (human PAR-1) | IC50 (human P2X3) | also measured
1 | COc1cc(C(C)C)c(Oc2cnc(N)nc2N)cc1S(N)(=O)=O [AF-219, reference compound] | – | – | Water drinking amount, Tap water (taste of SD rats; 10 mg/kg intraperitoneal injection, free drinking 15 minutes, amounts measured to the nearest 0.1 mL): 8.69; Water drinking amount, Sum (taste of SD rats; 10 mg/kg intraperitoneal injection, tap plus quinine water, 15 minutes, measured to the nearest 0.1 mL): 14.02; Water drinking amount, Quinine (taste of SD rats; 10 mg/kg intraperitoneal injection, water with 0.3 mM quinine hydrochloride, 15 minutes, measured to the nearest 0.1 mL): 5.33; drinking amount of bitter water compared with solvent control group (taste of SD rats; 10 mg/kg intraperitoneal, result in words): increased significantly; frequency and severity of cough in patients with chronic cough (chronic cough; clinical data): significantly effective in reducing the frequency and severity of cough; taste disorders in treated subjects (chronic cough; clinical trials): can lead to taste disorders
2 | Cc1ccc(C2=NN(C(=O)N[C@H](C)c3ccc(C(F)(F)F)nc3)C[C@@H]2N2CCCC2=O)cc1 [Compound 21] | > 30000 nM | 129 nM | IC50 (human P2X4): > 20000 nM
3 | Cc1ccc(C2=NN(C(=O)N[C@H](C)c3nc(C)no3)C[C@@H]2N2CCCC2=O)cc1 [Compound 45] | > 30000 nM | – | –
4 | Cc1ccc(C2=NN(C(=O)N[C@H](C)c3cnc(C(F)(F)F)nc3)C[C@@H]2N2CCN(C)C2=O)cc1 [Compound 41] | > 30000 nM | – | –
5 | Cc1ccc(C2=NN(C(=O)N[C@H](C)c3cnc(C(F)(F)F)nc3)C[C@@H]2N2CCOC2=O)cc1 [Compound 40, (S)-4-(2-oxooxazolidin-3-yl)-3-(4-methylphenyl)-N-((R)-1-(2-(trifluoromethyl)pyrimidin-5-yl)ethyl)-4,5-dihydro-1H-pyrazol-1-carboxamide] | > 30000 nM | – | –
6 | Cc1ccc(C2=NN(C(=O)N[C@H](C)c3ccc(C(F)(F)F)nc3)C[C@H]2N2CCOC2=O)cc1 [Compound 22a, (R)-4-(2-oxooxazolidin-3-yl)-3-(4-methylphenyl)-N-((R)-1-(6-(trifluoromethyl)pyridin-3-yl)ethyl)-4,5-dihydro-1H-pyrazol-1-carboxamide] | – | 38 nM | IC50 (rP2X3): 57 nM; IC50 (gpP2X3): 578 nM; IC50 (human P2X4): > 20000 nM
7 | Cc1ccc(C2=NN(C(=O)N[C@H](C)c3ccc(C(F)(F)F)cc3)C[C@@H]2N2CCOCC2=O)cc1 [Compound 20] | > 30000 nM | – | –
8 | Cc1ccc(C2=NN(C(=O)N[C@H](C)c3cnc(C(F)(F)F)nc3)C[C@H]2N2CCCC2=O)cc1 [Compound 32a, (R)-4-(2-oxopyrrolidin-1-yl)-3-(4-methylphenyl)-N-((R)-1-(2-(trifluoromethyl)pyrimidin-5-yl)ethyl)-4,5-dihydro-1H-pyrazol-1-carboxamide] | – | 82 nM | IC50 (human P2X4): > 20000 nM
9 | Cc1ccc(C2=NN(C(=O)N[C@H](C)c3ccc(Cl)nn3)C[C@@H]2N2CCOC2=O)cc1 [Compound 31] | > 30000 nM | – | –
10 | Cc1ccc(C2=NN(C(=O)N[C@H](C)c3ccc(C(F)(F)F)nn3)C[C@@H]2N2CCOCC2=O)cc1 [Compound 30, (S)-4-(3-oxomorpholin-4-yl)-3-(4-methylphenyl)-N-((R)-1-(6-(trifluoromethyl)pyridazin-3-yl)ethyl)-4,5-dihydro-1H-pyrazol-1-carboxamide] | > 30000 nM | – | –
11 | Cc1ccc(C2=NN(C(=O)N[C@H](C)c3ccc(C(F)(F)F)nc3)C[C@@H]2N2CCN(C)CC2=O)cc1 [Compound 17, (S)-4-(4-methyl-2-oxopiperazin-1-yl)-3-(4-methylphenyl)-N-((R)-1-(6-(trifluoromethyl)pyridin-3-yl)ethyl)-4,5-dihydro-1H-pyrazol-1-carboxamide] | > 30000 nM | – | IC50 (rP2X3): 140 nM; IC50 (gpP2X3): 387 nM
12 | Cc1ccc(C2=NN(C(=O)N[C@H](C)c3ccc(C(F)(F)F)nc3)C[C@@H]2N2CCOCC2=O)cc1 [Compound 1, (S)-4-(3-oxomorpholin-4-yl)-3-(4-methylphenyl)-N-((R)-1-(6-(trifluoromethyl)pyridin-3-yl)ethyl)-4,5-dihydro-1H-pyrazol-1-carboxamide] | > 30000 nM | – | –
13 | Cc1ccc(C2=NN(C(=O)N[C@H](C)c3cnc(C)cn3)C[C@@H]2N2CCOC2=O)cc1 [Compound 27] | – | 389 nM | –
14 | CC(=O)N(C)[C@@H]1CN(C(=O)N[C@H](C)c2cnc(C(F)(F)F)nc2)N=C1c1ccc(C)cc1 [Compound 34a, (R)-4-(N-methylacetamido)-3-(4-methylphenyl)-N-((R)-1-(2-(trifluoromethyl)pyrimidin-5-yl)ethyl)-4,5-dihydro-1H-pyrazol-1-carboxamide] | – | 231 nM | –
